Series [1] relates to Mycobacterium tuberculosis. The experiment in a line: Antimycobacterial activity against Mycobacterium tuberculosis H37Rv assessed as bacterial growth inhibition by microplate Alamar blue assay. The series is classed as functional.
In series [2] the test system is Mycobacterium tuberculosis. The experiment in a line: Antimycobacterial activity against Mycobacterium tuberculosis H37RV assessed as bacterial growth inhibition. The series is classed as functional.
Series [3] can be described thus: Selectivity index, ratio of Ki for human TMPK to Ki for Mycobacterium tuberculosis TMPK.
Series [4] has as its target T1, Thymidylate kinase (Mycobacterium tuberculosis, UniProt P9WKE1).
T1 sequence (P9WKE1 whole entry): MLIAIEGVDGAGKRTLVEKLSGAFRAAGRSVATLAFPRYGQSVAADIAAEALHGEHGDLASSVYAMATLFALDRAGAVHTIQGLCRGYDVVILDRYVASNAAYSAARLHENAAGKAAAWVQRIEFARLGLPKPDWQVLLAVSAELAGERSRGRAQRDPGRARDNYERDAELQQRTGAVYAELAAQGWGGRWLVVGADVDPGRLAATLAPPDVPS
The series can be described thus: Inhibition of Mycobacterium tuberculosis TMPK assessed as inhibition constant.

Series [5] deals with T2, Thymidylate kinase (Homo sapiens, UniProt P23919).
T2 sequence (P23919 whole entry): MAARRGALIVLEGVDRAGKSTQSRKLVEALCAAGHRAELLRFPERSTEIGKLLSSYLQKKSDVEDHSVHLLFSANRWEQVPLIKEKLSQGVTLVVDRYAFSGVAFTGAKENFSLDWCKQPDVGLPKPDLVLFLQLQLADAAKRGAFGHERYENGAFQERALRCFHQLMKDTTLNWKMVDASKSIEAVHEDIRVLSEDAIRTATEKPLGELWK
The series can be described thus: Inhibition of human TMPK assessed as inhibition constant.

In series [6] the test system is Mycobacterium tuberculosis. The experiment in a line: Antimycobacterial activity against Mycobacterium tuberculosis H37Rv infected in po dosed C57BL/6 mouse assessed as bacterial growth inhibition measured after 8 days. The series is classed as functional. The following applies: 192 h, time 8 day.
The subject of series [7] is Mycobacterium tuberculosis. The series can be described thus: Antimycobacterial activity against Mycobacterium tuberculosis My331/88 assessed as bacterial growth inhibition measured after 14 to 21 day. The series is classed as functional. Conditions: time 14-21 day.
Series [8] addresses Adenosine kinase (Homo sapiens, UniProt P55263). The experiment in a line: Inhibition of human ADK.
Series [9] addresses Adenosine kinase (Mycobacterium tuberculosis (strain CDC 1551 / Oshkosh), UniProt P9WID4). The experiment in a line: Inhibition of Mycobacterium tuberculosis ADK.
For series [10], the system named is Mycobacterium tuberculosis. The series can be described thus: Antimycobacterial activity against Mycobacterium tuberculosis infected in Macrophage cell (unknown origin) assessed as bacterial growth inhibition. The series is classed as functional.
Series [11] concerns HepG2. The series can be described thus: Anticancer activity against human HepG2 cells assessed as cell growth inhibition. The series is classed as functional, cell-based.
Series [12] can be described thus: Selectivity index, ratio of IC50 for anticancer activity against human HepG2 cells to MIC for antimycobacterial activity against Mycobacterium tuberculosis. The series is classed as toxicity, cell-based. The following applies: read-out: Selectivity Index.
The subject of series [13] is Mycobacterium tuberculosis. The experiment in a line: Antimycobacterial activity against Mycobacterium tuberculosis assessed as bacterial growth inhibition measured after 14 to 21 day. The series is classed as functional. The following applies: time 14-21 day.

From ChEMBL document CHEMBL5360529, “Pyrimidine derivatives with antitubercular activity” (Eur J Med Chem, 2023) come the findings set out here.

In brackets after ≈: the same amount, converted by molar mass. Where only a bound is given, the exact number is not on record here.

Adenosine kinase (Homo sapiens, UniProt P55263), sequence (P55263 whole entry): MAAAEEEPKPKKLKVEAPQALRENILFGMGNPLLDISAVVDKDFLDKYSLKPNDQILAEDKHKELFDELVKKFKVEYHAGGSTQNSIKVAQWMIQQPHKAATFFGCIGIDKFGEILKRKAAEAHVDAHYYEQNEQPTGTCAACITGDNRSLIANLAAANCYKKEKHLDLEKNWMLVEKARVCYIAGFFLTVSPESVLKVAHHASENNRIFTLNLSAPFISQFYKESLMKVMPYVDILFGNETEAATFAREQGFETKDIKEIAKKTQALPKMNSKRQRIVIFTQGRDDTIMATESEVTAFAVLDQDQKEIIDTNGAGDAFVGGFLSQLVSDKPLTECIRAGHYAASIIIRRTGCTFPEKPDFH
Adenosine kinase (Mycobacterium tuberculosis (strain CDC 1551 / Oshkosh), UniProt P9WID4), sequence (P9WID4 whole entry): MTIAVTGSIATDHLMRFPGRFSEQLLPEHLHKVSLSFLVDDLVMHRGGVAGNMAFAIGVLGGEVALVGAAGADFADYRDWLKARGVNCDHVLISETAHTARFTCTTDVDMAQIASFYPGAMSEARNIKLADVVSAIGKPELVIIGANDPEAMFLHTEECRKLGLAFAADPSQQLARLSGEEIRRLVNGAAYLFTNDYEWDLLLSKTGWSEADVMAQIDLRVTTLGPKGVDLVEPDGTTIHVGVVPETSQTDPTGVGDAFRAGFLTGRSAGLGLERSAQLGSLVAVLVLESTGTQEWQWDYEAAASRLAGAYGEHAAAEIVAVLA

As to `CCCSc1nc(Cl)c(C#N)c(-c2ccco2)n1`, the MIC in series [1] was found to be 0.78 µg/mL.

In the case of `COc1ccc(Cn2cnc3c(-c4ccco4)nc(Cl)nc32)cc1`, the MIC in [2] came to 0.78 µg/mL. Consider `COc1ccc(-c2cc(=O)n3nc(C)c(-c4ccc(Cl)cc4)c3[nH]2)cc1`, for which the MIC in [2] turned out to be 3.12 µM. As a reminder, the IC90 is the concentration at which the effect reaches the 90% level. Regarding `COc1ccc(CNc2nc(Cl)nc(-c3ccco3)c2NC=O)cc1`, in series [2], the IC90 stood at 0.29 µg/mL (≈ 0.808 µM). `NCC[C@H](O)C(=O)N[C@@H]1C[C@H](N)[C@@H](O[C@H]2O[C@H](CN)[C@@H](O)[C@H](O)[C@H]2O)[C@H](O)[C@H]1O[C@H]1O[C@H](CO)[C@@H](O)[C@H](N)[C@H]1O` [AMIKACIN]: in [2], the MIC amounted to 2 µg/mL. On to `Cc1cn([C@@H]2O[C@H](CO)[C@H]3CNC(=S)O[C@H]32)c(=O)[nH]c1=O`, for which the Ratio Ki in series [3] was found to be 200. What is called Ki is a dissociation constant, usually derived from enzyme kinetics or from competition with a known ligand. Take `Cc1cn([C@H]2C[C@H](O)[C@@H](CNC(=S)Nc3ccc(Cl)c(C(F)(F)F)c3)O2)c(=O)[nH]c1=O`: the Ratio Ki in series [3] was determined as 600. For the same compound, the values for the inhibition constant Ki in [4] and in series [5] were 0.6 µM and 362 µM, respectively.

In the case of `CCCSc1nc(Cl)c(C#N)c(-c2cccc(F)c2)n1`, the MIC in series [1] is 0.78 µg/mL. `O=C(C1CCN(c2cc(N3CCOCC3)ncn2)CC1)N1CCC(Cc2ccc(F)cc2)CC1`: in [6], the ED99 worked out at 29 mg/kg. Regarding `N#Cc1c(Cl)nc(SCc2ccc(Cl)cc2)nc1-c1cccs1`, in [1], the MIC came to 0.78 µg/mL. Same read-out and setting: the value for `CCCSc1nc(Cl)c(C#N)c(-c2cccs2)n1` was 0.78 µg/mL. By IC50 is commonly meant the midpoint of a concentration-inhibition curve. `OC[C@H]1O[C@@H](n2ccc3c(-c4cc5ccccc5o4)nc(F)nc32)[C@H](O)[C@@H]1O`: the MIC in series [7] turned out to be 62.5 µM (≈ 24.1 µg/mL). The half-inhibitory concentration (IC50) is greater than 10 µM in series [8] and 1.2 µM in [9]. With `COc1ccc(CNc2nc(F)nc(-c3ccco3)c2NC=O)cc1`, in series [2], the IC90 was less than 0.2 µg/mL. For `CC(=O)NC[C@H]1CN(c2ccc(N3CCOCC3)c(F)c2)C(=O)O1` [LINEZOLID], the ED99 in series [6] came to 28 mg/kg.

Consider `O=c1cc(CC2CCCCC2)[nH]c2c(-c3ccc(Cl)cc3)cnn12`, for which the MIC in series [2] came out at 0.78 µM. Turning to `COc1c(N2C[C@@H]3CCCN[C@@H]3C2)c(F)cc2c(=O)c(C(=O)O)cn(C3CC3)c12` [MOXIFLOXACIN], in series [6], the ED99 was 27.7 mg/kg. `O=c1cc(-c2ccc(Cl)cc2)[nH]c2c(-c3ccc(Cl)cc3)cnn12`: the MIC in [2] was 12.5 µM. On to `COc1ccc(CNc2nc(C)nc(-c3ccco3)c2NC=O)cc1`, for which the IC90 in [2] turned out to be 0.33 µg/mL (≈ 0.975 µM).

Regarding `Cc1nn2c(=O)cc(-c3ccc(F)c(F)c3)[nH]c2c1-c1ccccc1`, the MIC in [2] is 1.56 µM; in series [10], 2.73 µM (≈ 0.921 µg/mL). The IC50 in [11] is greater than 100 µM. The selectivity ratio in series [12] was greater than 36. On to `Cc1cn([C@H]2C[C@H](NC(=O)N[C@H]3C[C@H](c4[nH]c(=O)[nH]c(=O)c4C)O[C@@H]3O)[C@@H](CO)O2)c(=O)[nH]c1=O`, for which the Ki in [4] stood at 37 µM. `Cc1nn2c(=O)cc(-c3ccccc3)[nH]c2c1-c1ccccc1`: the MIC in series [2] is 3.12 µM. In the case of `O=C(C1CCN(c2cc(N3CCOCC3)ncn2)CC1)N1CCC(Oc2ccc(F)cc2)CC1`, the ED99 in series [6] amounted to 30 mg/kg. For `OC[C@H]1O[C@@H](n2ccc3c(-c4cccc5c4oc4ccccc45)nc(F)nc32)[C@H](O)[C@@H]1O`, the MIC in series [13] and in [7] was 32 µM (≈ 13.9 µg/mL) throughout. Besides, the values for the IC50 in series [8] and in series [9] were greater than 20 µM and 0.18 µM, respectively. Consider `O=c1nc(N2CCN(CC3CCCCC3)CC2)sc2c([N+](=O)[O-])cc(C(F)(F)F)cc12` [MACOZINONE], for which the MIC in series [2] was no more than 0.00019 µg/mL.
